Measured values: patent publication US10294202B2, “Pyrrolidinones as herbicides” (FMC Corporation, priority 2013, dated 2019)

Key:
corn [1] = assay: Test C pre-/postemergence herbicide test; assay type: in vivo, Zea mays
Method in brief: (§1)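 Test compounds, formulated in a surfactant-containing non-phytotoxic solvent blend, are applied to seeded loam/sand soil (preemergence) and to young plants at the 1- to 4-leaf stage in peat-based medium (postemergence). Plants stay 13 to 15 days under greenhouse conditions, then are scored visually relative to controls, 0 = no effect, 100 = complete control.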

galium = assay: Test C pre-/postemergence herbicide test; assay type: in vivo, Galium aparine
Method in brief: as §1

ragweed = assay: Test C pre-/postemergence herbicide test; assay type: in vivo, Ambrosia elatior
Method in brief: as §1

sedge, umbrella = assay: Test B flooded paddy test; assay type: in vivo, Cyperus difformis; conditions: 500 g ai/ha, Flood; scale of 0 to 100 where 0 is no effect and 100 is complete control
Method in brief: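 2-leaf plants; flood 3 cm over soil; compound into paddy water; depth held. Greenhouse 13–15 d. Visual rating vs controls, 0 (no effect) to 100 (complete control); dash = not tested.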

soybean = assay: Test C pre-/postemergence herbicide test; assay type: in vivo, Glycine max
Method in brief: as §1

barnyardgrass = assay: Test A pre-/postemergence herbicide test; assay type: in vivo, Echinochloa crus-galli
Method in brief: (§2)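 Planted in loam–sand blend; treated the same day preemergence by directed soil spray, while separately grown plants at one- to two-leaf stage got postemergence spray. Compared visually with untreated controls after approximately 10 days; 100 means complete control.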

oat, wild = assay: Test C pre-/postemergence herbicide test; assay type: in vivo, Avena fatua; conditions: Postemergence
Method in brief: as §1

pigweed = assay: Test A pre-/postemergence herbicide test; assay type: in vivo, Amaranthus retroflexus
Method in brief: as §2

foxtail, giant = assay: Test C pre-/postemergence herbicide test; assay type: in vivo, Setaria faberii
Method in brief: as §1

ryegrass, Italian = assay: Test C pre-/postemergence herbicide test; assay type: in vivo, Lolium multiflorum
Method in brief: as §1

corn [2] = assay: Test A pre-/postemergence herbicide test; assay type: in vivo, Zea mays; conditions: Postemergence
Method in brief: as §2

[3] = Postemergence, 16 g ai/ha, scale 0 to 100 (0 no effect, 100 complete control)
[4] = Postemergence, 31 g ai/ha, scale 0 to 100 (0 no effect, 100 complete control)
[5] = Postemergence, 62 g ai/ha, scale 0 (no effect) to 100 (complete control)
[6] = Postemergence, 125 g ai/ha, scale 0 to 100 (0 no effect, 100 complete control)
[7] = Preemergence, 31 g ai/ha, scale 0 to 100, 0 is no effect and 100 is complete control
[8] = Preemergence, 62 g ai/ha, scale 0 to 100 (0 no effect, 100 complete control)
[9] = Preemergence, 125 g ai/ha, scale 0 to 100 (0 no effect, 100 complete control)
[10] = Preemergence, 16 g ai/ha, scale 0 to 100
[11] = Postemergence, 125 g ai/ha, visual rating on 0 to 100 scale (0 no effect, 100 complete control), approx. 10 days
[12] = Postemergence, 500 g ai/ha, 0 to 100 scale (0 no effect, 100 complete control)
[13] = Preemergence, 125 g ai/ha, 0 to 100 scale where 0 is no effect and 100 is complete control
[14] = Preemergence, 500 g ai/ha, visual rating on 0 to 100 scale (0 no effect, 100 complete control)
[15] = 31 g ai/ha, scale 0 to 100 (0 no effect, 100 complete control)
[16] = 62 g ai/ha, scale 0 (no effect) to 100 (complete control)
[17] = 125 g ai/ha, scale 0 to 100 (0 no effect, 100 complete control)
[18] = 125 g ai/ha, visual rating on 0 to 100 scale (0 no effect, 100 complete control), approx. 10 days
[19] = 500 g ai/ha, 0 to 100 scale (0 no effect, 100 complete control)
[20] = Postemergence, 250 g ai/ha, scale 0 to 100 (0 no effect, 100 complete control)
[21] = Preemergence, 125 g ai/ha, scale 0 to 100

CN1CC(c2ccc(C(F)(F)F)cc2)C(C(=O)Nc2ccccc2F)C1=O (centres unmarked) [Compound 304]
Plant response rating, Corn (corn [1]; [3]): 0 | Plant response rating, Corn (corn [1]; [4]): 0 | Plant response rating, Corn (corn [1]; [5]): 0 | Plant response rating, Corn (corn [1]; [6]): 5 | Corn plant response rating (corn [1]; [7]): 0 | Corn plant response rating (corn [1]; [8]): 40 | Plant response rating, Corn (corn [1]; [9]): 65 | Plant response rating, Corn (corn [1]; [10]): 0 | Galium plant response rating (galium; [7]): 85 | Galium plant response rating (galium; [8]): 95 | Plant response rating, Galium (galium; [9]): 85 | Plant response rating, Galium (galium; [10]): 100 | Plant response rating, Ragweed (ragweed; [3]): 0 | Plant response rating, Ragweed (ragweed; [4]): 0 | Plant response rating, Ragweed (ragweed; [5]): 0 | Plant response rating, Ragweed (ragweed; [6]): 35 | Ragweed plant response rating (ragweed; [7]): 60 | Ragweed plant response rating (ragweed; [8]): 60 | Plant response rating, Ragweed (ragweed; [9]): 80 | Plant response rating, Ragweed (ragweed; [10]): 25 | Plant response rating, Sedge, Umbrella (sedge, umbrella): 0 | Plant response rating, Soybean (soybean; [3]): 0 | Plant response rating, Soybean (soybean; [4]): 0 | Plant response rating, Soybean (soybean; [5]): 5 | Plant response rating, Soybean (soybean; [6]): 10 | Soybean plant response rating (soybean; [7]): 0 | Soybean plant response rating (soybean; [8]): 0 | Plant response rating, Soybean (soybean; [9]): 0 | Plant response rating, Soybean (soybean; [10]): 0 | Plant response rating, Barnyardgrass (barnyardgrass; [11]): 80 | Plant response rating, Barnyardgrass (barnyardgrass; [12]): 90 | Plant response rating, Barnyardgrass (barnyardgrass; [13]): 90 | Barnyardgrass plant response rating (barnyardgrass; [14]): 90 | Plant response rating, Oat, Wild (oat, wild; 16 g ai/ha, scale 0 to 100 (0 no effect, 100 complete control)): 0 | Plant response rating, Oat, Wild (oat, wild; [15]): 0 | Plant response rating, Oat, Wild (oat, wild; [16]): 0 | Plant response rating, Oat, Wild (oat, wild; [17]): 0 | Plant response rating, Pigweed (pigweed; [11]): 40 | Plant response rating, Pigweed (pigweed; [12]): 60 | Plant response rating, Pigweed (pigweed; [13]): 70 | Pigweed plant response rating (pigweed; [14]): 80 | Plant response rating, Foxtail, Giant (foxtail, giant; [3]): 0 | Plant response rating, Foxtail, Giant (foxtail, giant; [4]): 0 | Plant response rating, Foxtail, Giant (foxtail, giant; [5]): 10 | Plant response rating, Foxtail, Giant (foxtail, giant; [6]): 45 | Foxtail, Giant plant response rating (foxtail, giant; [7]): 90 | Foxtail, Giant plant response rating (foxtail, giant; [8]): 95 | Plant response rating, Foxtail, Giant (foxtail, giant; [9]): 95 | Plant response rating, Foxtail, Giant (foxtail, giant; [10]): 90 | Plant response rating, Ryegrass, Italian (ryegrass, Italian; [3]): 0 | Plant response rating, Ryegrass, Italian (ryegrass, Italian; [4]): 0 | Plant response rating, Ryegrass, Italian (ryegrass, Italian; [5]): 5 | Plant response rating, Ryegrass, Italian (ryegrass, Italian; [6]): 0 | Ryegrass, Italian plant response rating (ryegrass, Italian; [7]): 30 | Ryegrass, Italian plant response rating (ryegrass, Italian; [8]): 75 | Plant response rating, Ryegrass, Italian (ryegrass, Italian; [9]): 40 | Plant response rating, Ryegrass, Italian (ryegrass, Italian; [10]): 10 | Plant response rating, Corn (corn [2]; [18]): 30 | Plant response rating, Corn (corn [2]; [19]): 70

O=C1NCC(c2cccc(Br)c2)C1C(=O)Nc1cccc(F)c1F (centres unmarked) [Compound 309]
Plant response rating, Corn (corn [1]; [4]): 0 | Plant response rating, Corn (corn [1]; [5]): 0 | Plant response rating, Corn (corn [1]; [6]): 0 | Plant response rating, Corn (corn [1]; [20]): 20 | Corn plant response rating (corn [1]; [7]): 0 | Corn plant response rating (corn [1]; [8]): 0 | Plant response rating, Corn (corn [1]; [21]): 65 | Plant response rating (scale of 0 to 100), Corn (corn [1]; Preemergence, 250 g ai/ha): 70 | Plant response rating, Galium (galium; [4]): 30 | Plant response rating, Galium (galium; [5]): 40 | Plant response rating, Galium (galium; [6]): 55 | Plant response rating, Galium (galium; [20]): 60 | Galium plant response rating (galium; [7]): 0 | Galium plant response rating (galium; [8]): 0 | Plant response rating, Galium (galium; [21]): 75 | Plant response rating (scale of 0 to 100), Galium (galium; Preemergence, 250 g ai/ha): 85 | Plant response rating, Ragweed (ragweed; [4]): 0 | Plant response rating, Ragweed (ragweed; [5]): 0 | Plant response rating, Ragweed (ragweed; [6]): 35 | Plant response rating, Ragweed (ragweed; [20]): 40 | Ragweed plant response rating (ragweed; [8]): 10 | Plant response rating, Ragweed (ragweed; [21]): 25 | Plant response rating (scale of 0 to 100), Ragweed (ragweed; Preemergence, 250 g ai/ha): 65 | Plant response rating, Sedge, Umbrella (sedge, umbrella): 0 | Plant response rating, Soybean (soybean; [4]): 0 | Plant response rating, Soybean (soybean; [5]): 0 | Plant response rating, Soybean (soybean; [6]): 15 | Plant response rating, Soybean (soybean; [20]): 0 | Soybean plant response rating (soybean; [8]): 0 | Plant response rating, Soybean (soybean; [21]): 0 | Plant response rating (scale of 0 to 100), Soybean (soybean; Preemergence, 250 g ai/ha): 0 | Plant response rating, Barnyardgrass (barnyardgrass; [11]): 80 | Plant response rating, Barnyardgrass (barnyardgrass; [12]): 90 | Plant response rating, Barnyardgrass (barnyardgrass; [13]): 80 | Barnyardgrass plant response rating (barnyardgrass; [14]): 80 | Plant response rating, Oat, Wild (oat, wild; [15]): 0 | Plant response rating, Oat, Wild (oat, wild; [16]): 0 | Plant response rating, Oat, Wild (oat, wild; [17]): 0 | Plant response rating, Oat, Wild (oat, wild; 250 g ai/ha, scale 0 to 100 (0 no effect, 100 complete control)): 0 | Plant response rating, Pigweed (pigweed; [11]): 0 | Plant response rating, Pigweed (pigweed; [12]): 0 | Plant response rating, Pigweed (pigweed; [13]): 0 | Pigweed plant response rating (pigweed; [14]): 0 | Plant response rating, Foxtail, Giant (foxtail, giant; [4]): 10 | Plant response rating, Foxtail, Giant (foxtail, giant; [5]): 0 | Plant response rating, Foxtail, Giant (foxtail, giant; [6]): 40 | Plant response rating, Foxtail, Giant (foxtail, giant; [20]): 80 | Foxtail, Giant plant response rating (foxtail, giant; [7]): 90 | Foxtail, Giant plant response rating (foxtail, giant; [8]): 90 | Plant response rating, Foxtail, Giant (foxtail, giant; [21]): 90 | Plant response rating (scale of 0 to 100), Foxtail, Giant (foxtail, giant; Preemergence, 250 g ai/ha): 95 | Plant response rating, Ryegrass, Italian (ryegrass, Italian; [4]): 0 | Plant response rating, Ryegrass, Italian (ryegrass, Italian; [5]): 0 | Plant response rating, Ryegrass, Italian (ryegrass, Italian; [6]): 0 | Plant response rating, Ryegrass, Italian (ryegrass, Italian; [20]): 5 | Ryegrass, Italian plant response rating (ryegrass, Italian; [8]): 0 | Plant response rating, Ryegrass, Italian (ryegrass, Italian; [21]): 0 | Plant response rating (scale of 0 to 100), Ryegrass, Italian (ryegrass, Italian; Preemergence, 250 g ai/ha): 10 | Plant response rating, Corn (corn [2]; [18]): 30 | Plant response rating, Corn (corn [2]; [19]): 80
